Source: ChEMBL document CHEMBL3351303, “Discovery of Imigliptin, a Novel Selective DPP-4 Inhibitor for the Treatment of Type 2 Diabetes” (ACS Med Chem Lett, 2014)
≈ marks a conversion by molar mass, not a printed value.

How the values were obtained:
Dipeptidyl peptidase 8 = Dipeptidyl peptidase 8 (Homo sapiens, UniProt Q6V1X1); assay: Inhibition of human recombinant DPP8 pre-incubated with compound for 15 mins before substrate addition by luminescence assay
Dipeptidyl peptidase 9 = Dipeptidyl peptidase 9 (Homo sapiens, UniProt Q86TI2); assay: Inhibition of human recombinant DPP9 pre-incubated with compound for 15 mins before substrate addition by luminescence assay
Dipeptidyl peptidase 9, sequence (Q86TI2 whole entry): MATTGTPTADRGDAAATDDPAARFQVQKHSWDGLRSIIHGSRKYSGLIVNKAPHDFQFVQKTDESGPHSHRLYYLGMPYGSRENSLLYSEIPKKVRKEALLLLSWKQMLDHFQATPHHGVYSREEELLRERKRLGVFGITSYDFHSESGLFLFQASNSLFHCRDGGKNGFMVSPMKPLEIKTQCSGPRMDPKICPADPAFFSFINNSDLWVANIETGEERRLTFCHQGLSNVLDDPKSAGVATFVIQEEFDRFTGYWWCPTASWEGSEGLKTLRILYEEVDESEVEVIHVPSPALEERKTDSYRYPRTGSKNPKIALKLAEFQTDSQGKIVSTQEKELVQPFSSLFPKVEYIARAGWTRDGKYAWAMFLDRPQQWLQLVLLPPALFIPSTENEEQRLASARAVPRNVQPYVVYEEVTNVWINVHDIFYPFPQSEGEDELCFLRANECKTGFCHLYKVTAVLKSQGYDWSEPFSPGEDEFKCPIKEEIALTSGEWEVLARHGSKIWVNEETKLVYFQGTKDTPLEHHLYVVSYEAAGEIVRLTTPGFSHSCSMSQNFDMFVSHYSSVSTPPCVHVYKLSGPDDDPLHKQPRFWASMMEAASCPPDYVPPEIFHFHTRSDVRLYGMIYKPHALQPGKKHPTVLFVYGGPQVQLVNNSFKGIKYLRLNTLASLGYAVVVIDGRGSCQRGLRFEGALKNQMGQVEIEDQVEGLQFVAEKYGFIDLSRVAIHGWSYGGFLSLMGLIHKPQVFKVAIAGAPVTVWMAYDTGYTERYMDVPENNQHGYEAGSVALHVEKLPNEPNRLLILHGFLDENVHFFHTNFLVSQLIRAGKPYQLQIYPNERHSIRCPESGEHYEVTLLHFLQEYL

[1] = Half life in rat at 10 mg/kg, iv; type: ADME, organism-based; parameters: dose 10 mg/kg, route intravenous; details: in vivo
[2] = Cmax in rat at 10 mg/kg, po; type: ADME, organism-based; parameters: dose 10 mg/kg, route oral; details: in vivo
[3] = AUClast in rat at 10 mg/kg, po; type: ADME, organism-based; parameters: time 0 - last, dose 10 mg/kg, route oral; details: plasma
[4] = Half life in rat at 10 mg/kg, po; type: ADME, organism-based; parameters: dose 10 mg/kg, route oral; details: in vivo
[5] = Oral bioavailability in rat at 10 mg/kg; type: ADME, organism-based; details: in vivo
[6] = Clearance in dog at 6.25 mg/kg, iv; type: ADME, organism-based, Canis lupus familiaris; parameters: dose 6.25 mg/kg, route intravenous; details: in vivo
[7] = Volume of distribution at steady state in dog at 6.25 mg/kg, iv; type: ADME, organism-based, Canis lupus familiaris; parameters: dose 6.25 mg/kg, route intravenous; details: in vivo, read-out: Vdss
[8] = Half life in dog at 6.25 mg/kg, iv; type: ADME, organism-based, Canis lupus familiaris; parameters: dose 6.25 mg/kg, route intravenous; details: in vivo
[9] = Cmax in dog at 5 mg/kg, po; type: ADME, organism-based, Canis lupus familiaris; parameters: dose 5 mg/kg, route oral; details: in vivo
[10] = AUClast in dog at 5 mg/kg, po; type: ADME, organism-based, Canis lupus familiaris; parameters: time 0 - last, dose 5 mg/kg, route oral; details: plasma
[11] = Half life in dog at 5 mg/kg, po; type: ADME, organism-based, Canis lupus familiaris; parameters: dose 5 mg/kg, route oral; details: in vivo
Mus musculus [12] = assay: Inhibition of DPP4 activity in C57BL/6 mouse at 1 mg/kg, po administered as single dose 30 mins before orally glucose challenge and measured 20 mins post oral glucose challenge by luminescence assay; type: functional
[13] = Oral bioavailability in dog at 5 mg/kg; type: ADME, organism-based, Canis lupus familiaris; details: in vivo
[14] = Clearance in monkey at 5 mg/kg, iv; type: ADME, organism-based, Macaca mulatta; parameters: dose 5 mg/kg, route intravenous; details: rhesus monkey, in vivo
[15] = Volume of distribution at steady state in monkey at 5 mg/kg, iv; type: ADME, organism-based, Macaca mulatta; parameters: dose 5 mg/kg, route intravenous; details: rhesus monkey, in vivo, read-out: Vdss
[16] = Half life in monkey at 5 mg/kg, iv; type: ADME, organism-based, Macaca mulatta; parameters: dose 5 mg/kg, route intravenous; details: rhesus monkey, in vivo
[17] = Cmax in monkey at 10 mg/kg, po; type: ADME, organism-based, Macaca mulatta; parameters: dose 10 mg/kg, route oral; details: rhesus monkey, in vivo
[18] = AUClast in monkey at 10 mg/kg, po; type: ADME, organism-based, Macaca mulatta; parameters: dose 10 mg/kg, route oral, time 0 - last; details: rhesus monkey, plasma
[19] = Half life in monkey at 10 mg/kg, po; type: ADME, organism-based, Macaca mulatta; parameters: dose 10 mg/kg, route oral; details: rhesus monkey, in vivo
[20] = Oral bioavailability in monkey at 10 mg/kg; type: ADME, organism-based, Macaca mulatta; details: rhesus monkey, in vivo
Mus musculus [21] = assay: Antidiabetic activity in C57BL/6 mouse assessed as plasma glucose level at 0.1 mg/kg, po administered as single dose 30 mins before orally glucose challenge by oral glucose tolerance test (reference value: 15.6 mM); type: functional
Mus musculus [22] = assay: Antidiabetic activity in C57BL/6 mouse assessed as plasma glucose level at 0.3 mg/kg, po administered as single dose 30 mins before orally glucose challenge by oral glucose tolerance test (reference value: 15.6 mM); type: functional
Mus musculus [23] = assay: Antidiabetic activity in C57BL/6 mouse assessed as plasma glucose level at 1 mg/kg, po administered as single dose 30 mins before orally glucose challenge by oral glucose tolerance test (reference value: 15.6 mM); type: functional
Mus musculus [24] = assay: Inhibition of DPP4 activity in C57BL/6 mouse at 3 mg/kg, po administered as single dose 30 mins before orally glucose challenge and measured 20 mins post oral glucose challenge by luminescence assay; details: C57BL/6, po, read-out: INH
Mus musculus [25] = assay: Inhibition of DPP4 activity in C57BL/6 mouse at 0.1 mg/kg, po administered as single dose 30 mins before orally glucose challenge and measured 20 mins post oral glucose challenge by luminescence assay; type: functional
Mus musculus [26] = assay: Inhibition of DPP4 activity in C57BL/6 mouse at 0.3 mg/kg, po administered as single dose 30 mins before orally glucose challenge and measured 20 mins post oral glucose challenge by luminescence assay; type: functional
Mus musculus [27] = assay: Increase in plasma GLP1 level in C57BL/6 mouse at 0.1 mg/kg, po administered as single dose 30 mins before orally glucose challenge and measured 20 mins post oral glucose challenge by ELISA method (reference value: 4 pM); type: functional
Mus musculus [28] = assay: Increase in plasma GLP1 level in C57BL/6 mouse at 0.3 mg/kg, po administered as single dose 30 mins before orally glucose challenge and measured 20 mins post oral glucose challenge by ELISA method (reference value: 4 pM); type: functional
Mus musculus [29] = assay: Increase in plasma GLP1 level in C57BL/6 mouse at 1 mg/kg, po administered as single dose 30 mins before orally glucose challenge and measured 20 mins post oral glucose challenge by ELISA method (reference value: 4 pM); type: functional
[30] = Plasma concentration in C57BL/6 mouse at 3 mg/kg, po administered as single dose 30 mins before orally glucose challenge and measured 20 mins post oral glucose challenge; type: ADME, organism-based; parameters: dose 3 mg/kg, route oral
[31] = Plasma concentration in C57BL/6 mouse at 0.1 mg/kg, po administered as single dose 30 mins before orally glucose challenge and measured 20 mins post oral glucose challenge; type: ADME, organism-based; parameters: dose 0.1 mg/kg, route oral
[32] = Plasma concentration in C57BL/6 mouse at 0.3 mg/kg, po administered as single dose 30 mins before orally glucose challenge and measured 20 mins post oral glucose challenge; type: ADME, organism-based; parameters: dose 0.3 mg/kg, route oral
[33] = Plasma concentration in C57BL/6 mouse at 1 mg/kg, po administered as single dose 30 mins before orally glucose challenge and measured 20 mins post oral glucose challenge; type: ADME, organism-based; parameters: dose 1 mg/kg, route oral
Mus musculus [34] = assay: Antidiabetic activity in C57BL/6 mouse assessed as reduction in plasma glucose AUC (0 to 120 mins) at 0.1 mg/kg, po administered as single dose 30 mins before orally glucose challenge by oral glucose tolerance test; type: functional; details: C57BL/6, Plasma
Mus musculus [35] = assay: Antidiabetic activity in C57BL/6 mouse assessed as reduction in plasma glucose AUC (0 to 120 mins) at 0.3 mg/kg, po administered as single dose 30 mins before orally glucose challenge by oral glucose tolerance test; type: functional; details: C57BL/6, Plasma
Mus musculus [36] = assay: Antidiabetic activity in C57BL/6 mouse assessed as reduction in plasma glucose AUC (0 to 120 mins) at 1 mg/kg, po administered as single dose 30 mins before orally glucose challenge by oral glucose tolerance test; type: functional; details: C57BL/6, Plasma
Mus musculus [37] = assay: Toxicity in db/db mouse assessed as effect on body weight administered with food formulated compound for 28 days; type: organism-based; details: in vivo, po, 672 h
[38] = Solubility in pH 1.2 solution; type: physicochemical
[39] = Solubility in pH 4.5 solution; type: physicochemical
[40] = Solubility in pH 6.8 solution; type: physicochemical
[41] = Permeability from apical to basolateral side in human Caco2 cells; type: ADME, cell-based; details: Caco-2, read-out: permeability
[42] = Permeability from basolateral to apical side in human Caco2 cells; type: ADME, cell-based; details: Caco-2, read-out: permeability
[43] = Protein binding in rat; type: ADME, organism-based; details: in vivo, read-out: PB (converted)
[44] = Protein binding in dog; type: ADME, organism-based, Canis lupus familiaris; details: in vivo, read-out: PB (converted)
[45] = Protein binding in human; type: ADME, organism-based; details: in vivo, read-out: PB (converted)
Cytochrome P450 3A4 = Cytochrome P450 3A4 (Homo sapiens, UniProt P08684); assay: Inhibition of CYP3A4 (unknown origin); type: ADME
Cytochrome P450 3A4, sequence (P08684 whole entry): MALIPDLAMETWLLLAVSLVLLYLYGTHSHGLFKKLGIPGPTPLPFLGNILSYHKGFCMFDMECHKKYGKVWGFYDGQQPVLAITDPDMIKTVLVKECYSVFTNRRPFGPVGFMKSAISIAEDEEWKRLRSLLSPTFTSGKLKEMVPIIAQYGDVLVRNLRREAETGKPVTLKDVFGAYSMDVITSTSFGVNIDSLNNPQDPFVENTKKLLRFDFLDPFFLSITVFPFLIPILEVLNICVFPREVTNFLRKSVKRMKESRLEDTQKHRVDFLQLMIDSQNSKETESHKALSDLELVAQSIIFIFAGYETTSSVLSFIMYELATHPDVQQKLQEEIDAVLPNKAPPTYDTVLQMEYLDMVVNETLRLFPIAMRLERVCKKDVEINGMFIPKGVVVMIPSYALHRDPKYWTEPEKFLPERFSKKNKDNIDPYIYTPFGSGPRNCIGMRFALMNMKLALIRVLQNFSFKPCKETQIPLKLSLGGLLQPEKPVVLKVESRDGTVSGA

Cytochrome P450 2D6 = Cytochrome P450 2D6 (Homo sapiens, UniProt P10635); assay: Inhibition of CYP2D6 (unknown origin); type: ADME
Cytochrome P450 2D6, sequence (P10635 whole entry): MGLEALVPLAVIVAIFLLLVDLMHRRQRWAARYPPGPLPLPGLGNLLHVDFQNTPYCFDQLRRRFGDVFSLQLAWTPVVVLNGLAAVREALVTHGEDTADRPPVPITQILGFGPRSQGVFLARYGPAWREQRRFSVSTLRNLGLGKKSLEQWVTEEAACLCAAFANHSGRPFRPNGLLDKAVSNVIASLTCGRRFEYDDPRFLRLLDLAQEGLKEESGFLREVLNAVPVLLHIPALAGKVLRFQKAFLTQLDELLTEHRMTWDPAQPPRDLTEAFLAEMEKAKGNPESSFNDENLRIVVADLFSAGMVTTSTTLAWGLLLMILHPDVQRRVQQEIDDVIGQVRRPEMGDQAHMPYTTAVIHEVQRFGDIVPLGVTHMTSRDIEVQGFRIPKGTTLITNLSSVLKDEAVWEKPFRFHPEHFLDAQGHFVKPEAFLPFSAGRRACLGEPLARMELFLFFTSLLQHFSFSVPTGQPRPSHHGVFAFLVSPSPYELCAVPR

Cytochrome P450 2C9 = Cytochrome P450 2C9 (Homo sapiens, UniProt P11712); assay: Inhibition of CYP2C9 (unknown origin); type: ADME
Cytochrome P450 2C9, sequence (P11712 whole entry): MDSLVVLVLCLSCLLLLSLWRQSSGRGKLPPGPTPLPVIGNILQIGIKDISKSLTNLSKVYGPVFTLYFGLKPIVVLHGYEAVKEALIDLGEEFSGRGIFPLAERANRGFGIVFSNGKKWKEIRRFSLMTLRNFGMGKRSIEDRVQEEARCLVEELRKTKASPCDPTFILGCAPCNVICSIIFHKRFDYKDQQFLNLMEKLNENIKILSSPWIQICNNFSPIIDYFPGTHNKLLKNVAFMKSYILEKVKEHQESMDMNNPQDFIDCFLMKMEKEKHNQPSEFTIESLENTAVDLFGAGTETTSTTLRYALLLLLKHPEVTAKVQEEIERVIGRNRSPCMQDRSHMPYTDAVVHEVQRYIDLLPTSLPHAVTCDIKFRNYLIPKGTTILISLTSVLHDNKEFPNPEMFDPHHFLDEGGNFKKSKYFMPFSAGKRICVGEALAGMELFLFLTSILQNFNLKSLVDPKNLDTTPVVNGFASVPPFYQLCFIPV

Cytochrome P450 2C19 = Cytochrome P450 2C19 (Homo sapiens, UniProt P33261); assay: Inhibition of CYP2C19 (unknown origin); type: ADME
Cytochrome P450 2C19, sequence (P33261 whole entry): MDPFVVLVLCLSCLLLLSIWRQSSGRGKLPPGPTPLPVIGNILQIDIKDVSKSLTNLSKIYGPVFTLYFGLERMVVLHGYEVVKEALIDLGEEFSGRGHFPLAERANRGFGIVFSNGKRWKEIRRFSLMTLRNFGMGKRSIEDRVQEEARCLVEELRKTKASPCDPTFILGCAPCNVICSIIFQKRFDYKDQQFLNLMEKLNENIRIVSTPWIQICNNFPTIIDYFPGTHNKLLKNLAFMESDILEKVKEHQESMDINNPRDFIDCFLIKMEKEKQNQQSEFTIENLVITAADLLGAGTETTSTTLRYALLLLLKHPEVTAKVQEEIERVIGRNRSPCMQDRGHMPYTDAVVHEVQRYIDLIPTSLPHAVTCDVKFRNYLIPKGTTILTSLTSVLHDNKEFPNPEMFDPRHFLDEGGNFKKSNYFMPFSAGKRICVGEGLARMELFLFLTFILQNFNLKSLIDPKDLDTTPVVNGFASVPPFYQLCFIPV

[46] = target: Voltage-gated inwardly rectifying potassium channel KCNH2 (Homo sapiens, UniProt Q12809); assay: Inhibition of human ERG
Voltage-gated inwardly rectifying potassium channel KCNH2, sequence (Q12809 whole entry): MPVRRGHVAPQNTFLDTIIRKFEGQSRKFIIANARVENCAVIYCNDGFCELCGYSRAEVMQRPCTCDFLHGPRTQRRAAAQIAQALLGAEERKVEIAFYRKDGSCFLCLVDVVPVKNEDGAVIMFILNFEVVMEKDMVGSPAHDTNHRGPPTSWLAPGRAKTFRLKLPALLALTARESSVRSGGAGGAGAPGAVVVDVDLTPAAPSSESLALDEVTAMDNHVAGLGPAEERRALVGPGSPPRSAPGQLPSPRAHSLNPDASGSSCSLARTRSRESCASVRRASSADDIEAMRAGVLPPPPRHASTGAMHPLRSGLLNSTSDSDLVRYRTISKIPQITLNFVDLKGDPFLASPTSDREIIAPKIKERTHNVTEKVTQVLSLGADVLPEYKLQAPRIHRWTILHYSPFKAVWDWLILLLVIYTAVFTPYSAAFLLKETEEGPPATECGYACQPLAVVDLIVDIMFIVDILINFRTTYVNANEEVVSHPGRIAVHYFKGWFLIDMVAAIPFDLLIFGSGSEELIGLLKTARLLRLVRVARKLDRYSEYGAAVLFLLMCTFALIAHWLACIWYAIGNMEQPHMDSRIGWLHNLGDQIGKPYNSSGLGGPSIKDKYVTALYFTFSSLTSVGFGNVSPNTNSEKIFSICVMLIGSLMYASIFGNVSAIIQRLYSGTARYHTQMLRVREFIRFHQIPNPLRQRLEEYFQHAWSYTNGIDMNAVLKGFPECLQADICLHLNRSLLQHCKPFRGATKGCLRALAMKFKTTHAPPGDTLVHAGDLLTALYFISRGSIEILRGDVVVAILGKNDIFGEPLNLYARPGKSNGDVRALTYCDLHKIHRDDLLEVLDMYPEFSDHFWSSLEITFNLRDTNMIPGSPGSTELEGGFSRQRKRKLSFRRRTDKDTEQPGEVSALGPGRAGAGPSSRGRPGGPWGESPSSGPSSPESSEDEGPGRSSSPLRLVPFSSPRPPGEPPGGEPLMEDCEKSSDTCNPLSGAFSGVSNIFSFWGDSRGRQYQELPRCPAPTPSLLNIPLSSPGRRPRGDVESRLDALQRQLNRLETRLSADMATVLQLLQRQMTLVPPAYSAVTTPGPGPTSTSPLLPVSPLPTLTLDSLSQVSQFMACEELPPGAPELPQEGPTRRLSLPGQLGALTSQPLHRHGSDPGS

Canis familiaris = assay: Cardiotoxicity in conscious dog assessed as induction of QT prolongation up to 20 mg/kg; type: toxicity, organism-based, Canis lupus familiaris; parameters: dose 20 mg/kg; details: in vivo
Salmonella typhimurium = assay: Genotoxicity in Salmonella typhimurium at 5000 ug/plate by Ames test; type: toxicity, organism-based; details: salmonella enterica subsp. enterica serovar typhimurium
[47] = Toxicity in rat after 28 days; type: organism-based; details: in vivo
Mus musculus [48] = species on record: Mus musculus; assay: animal or person; details: C57BL/6, Plasma, po, read-out: INH
Mus musculus [49] = species on record: Mus musculus; assay: animal or person; details: C57BL/6, Plasma, po, read-out: MED

Dipeptidyl peptidase 8, sequence (Q6V1X1 whole entry): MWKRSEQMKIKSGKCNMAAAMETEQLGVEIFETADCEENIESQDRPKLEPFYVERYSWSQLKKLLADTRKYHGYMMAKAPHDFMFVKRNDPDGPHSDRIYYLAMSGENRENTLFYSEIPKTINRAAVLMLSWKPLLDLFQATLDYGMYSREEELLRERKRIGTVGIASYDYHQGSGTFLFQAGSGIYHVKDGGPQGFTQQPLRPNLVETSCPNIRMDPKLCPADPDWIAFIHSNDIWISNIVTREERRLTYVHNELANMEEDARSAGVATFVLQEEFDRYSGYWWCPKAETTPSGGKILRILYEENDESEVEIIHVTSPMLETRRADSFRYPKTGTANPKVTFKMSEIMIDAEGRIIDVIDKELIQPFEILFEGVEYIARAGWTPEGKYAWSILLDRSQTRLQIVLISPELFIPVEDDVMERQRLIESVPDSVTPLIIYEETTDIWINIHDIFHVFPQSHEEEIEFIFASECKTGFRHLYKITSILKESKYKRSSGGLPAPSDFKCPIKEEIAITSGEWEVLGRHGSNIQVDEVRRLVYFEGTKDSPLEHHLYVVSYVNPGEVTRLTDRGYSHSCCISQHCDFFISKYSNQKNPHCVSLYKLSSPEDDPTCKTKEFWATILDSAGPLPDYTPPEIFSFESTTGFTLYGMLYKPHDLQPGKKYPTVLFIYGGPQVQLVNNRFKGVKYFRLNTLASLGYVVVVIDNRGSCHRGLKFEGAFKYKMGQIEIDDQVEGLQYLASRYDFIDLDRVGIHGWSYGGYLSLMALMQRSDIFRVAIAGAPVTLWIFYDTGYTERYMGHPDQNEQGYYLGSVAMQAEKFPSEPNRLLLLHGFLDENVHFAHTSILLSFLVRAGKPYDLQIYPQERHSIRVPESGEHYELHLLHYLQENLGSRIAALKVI

Cn1c(=O)n(Cc2ccccc2C#N)c2c(N3CCC[C@H](N)C3)ccnc21
IC50 (Dipeptidyl peptidase 8): > 100 µM | IC50 (Dipeptidyl peptidase 9): > 100 µM

COc1cc(N2CCC[C@@H](N)C2)c2c(n1)n(C)c(=O)n2Cc1ccccc1C#N
IC50 (Dipeptidyl peptidase 8): > 100 µM | IC50 (Dipeptidyl peptidase 9): > 100 µM

Cc1cc(N2CCC[C@@H](N)C2)c2c(n1)n(C)c(=O)n2Cc1ccccc1C#N
half-life [1]: 1.83 h | Cmax [2]: 1250 ng/mL | AUC(0-t) [3]: 3980 ng·h/mL | half-life [4]: 2.4 h | bioavailability [5]: 97% | clearance [6]: 35.3 mL/min/kg | Vd [7]: 2.46 L/kg | half-life [8]: 1.12 h | Cmax [9]: 1360 ng/mL | AUC(0-t) [10]: 3630 ng·h/mL | half-life [11]: 1.3 h | inhibition in vivo at 1 mg/kg (Mus musculus [12]): 71.2% | bioavailability [13]: 89% | clearance [14]: 11.2 mL/min/kg | Vd [15]: 2.44 L/kg | half-life [16]: 3.68 h | Cmax [17]: 3030 ng/mL | AUC(0-t) [18]: 12900 ng·h/mL | half-life [19]: 4.8 h | bioavailability [20]: 86% | Activity (Mus musculus [21]): 14.1 mM | Activity (Mus musculus [22]): 12.4 mM | Activity (Mus musculus [23]): 11.4 mM | inhibition in vivo at 3 mg/kg (Mus musculus [24]): 82.1% | inhibition in vivo at 0.1 mg/kg (Mus musculus [25]): 23.8% | inhibition in vivo at 0.3 mg/kg (Mus musculus [26]): 43.8% | Activity (Mus musculus [27]): 5.7 pM | Activity (Mus musculus [28]): 5.7 pM | Activity (Mus musculus [29]): 6.9 pM | concentration at 20 min [30]: 129 ng/mL | concentration at 20 min [31]: 3.9 ng/mL | concentration at 20 min [32]: 10.3 ng/mL | concentration at 50 min [33]: 36.1 ng/mL | inhibition in vivo at 0.1 mg/kg (Mus musculus [34]): 3% | inhibition in vivo at 0.3 mg/kg (Mus musculus [35]): 40% | inhibition in vivo at 1 mg/kg (Mus musculus [36]): 57% | Activity (Mus musculus [37]): Non-toxic | solubility [38]: 560 mg/mL (≈ 1490 mM) | solubility [39]: 560 mg/mL (≈ 1490 mM) | solubility [40]: 551 mg/mL (≈ 1460 mM) | Papp A→B [41]: 9 ×10⁻⁶ cm/s | Papp B→A [42]: 28 ×10⁻⁶ cm/s | fraction unbound [43]: 0.58 | fraction unbound [44]: 0.26 | fraction unbound [45]: 0.38 | INH (Cytochrome P450 3A4): > 30 µM | INH (Cytochrome P450 2D6): > 30 µM | INH (Cytochrome P450 2C9): > 30 µM | INH (Cytochrome P450 2C19): > 30 µM | INH [46]: > 25 µM | Activity (Canis familiaris): Non-toxic | Activity (Salmonella typhimurium): Non-toxic | NOAEL at 672 h [47]: 150 mg/kg | inhibition in vivo at 3 mg/kg (Mus musculus [48]): 65% | minimal effective dose (Mus musculus [49]): 0.3 mg/kg
